According to publication PMC10113378, “Synthesis, in vitro α-glucosidase inhibitory activities, and molecular dynamic simulations of novel 4-hydroxyquinolinone-hydrazones as potential antidiabetic agents” (Scientific Reports, 2023):
Read-outs that look alike come from different tables or passages of the source.

Legend:
α-glucosidase [1] = conditions: cited from earlier work
[2] = target: T1, α-glucosidase enzyme (EC3.2.1.20, Saccharomyces cerevisiae) (Saccharomyces cerevisiae, UniProt P53341); assay: biochemical; conditions: mean ± SD; substrate p-nitrophenyl glucopyranoside 4 mM, pH 6.8, 37 °C; read-out: α-Glucosidase inhibition IC50
T1 construct: purchased Sigma-Aldrich
Description: α-glucosidase enzyme (EC3.2.1.20, Saccharomyces cerevisiae, 20 U/mg) and substrate (p-nitrophenyl glucopyranoside) were purchased from Sigma-Aldrich. 1 mg of α-glucosidase was dissolved in potassium phosphate buffer (50 mM, pH = 6.8) to obtain the initial activity of 1 U/ml. Then, 20 µl of this enzyme solution was incubated with 135 µl of potassium phosphate buffer and 20 µl of test compound at various concentrations in DMSO. […] The percentage of inhibition for each entry was calculated by using the following formula: %Inhibition=Abscontrol-Abssample/Abscontrol×100.
IC50 values were obtained from the nonlinear regression curve using the Logit method[28],[29].

α-glucosidase [3] = target: T2, α-glucosidase (Saccharomyces cerevisiae, UniProt P53341); assay: Enzyme kinetic studies (Lineweaver–Burk plot, secondary plot); assay type: biochemical; conditions: for mode of inhibition: Lineweaver–Burk plot, Km increased, Vmax unchanged; for Ki: from plot of Km versus inhibitor concentration, read-out: inhibition constant, Ki
T2 construct: purchased Sigma-Aldrich
Description: A Lineweaver–Burk plot was generated to identify the type of inhibition and the Michaelis–Menten constant (Km) value was determined from the plot between the reciprocal of the substrate concentration (1/[S]) and reciprocal of enzyme rate (1/V) over various inhibitors concentrations[30],[31].

T1 sequence (P53341 whole entry): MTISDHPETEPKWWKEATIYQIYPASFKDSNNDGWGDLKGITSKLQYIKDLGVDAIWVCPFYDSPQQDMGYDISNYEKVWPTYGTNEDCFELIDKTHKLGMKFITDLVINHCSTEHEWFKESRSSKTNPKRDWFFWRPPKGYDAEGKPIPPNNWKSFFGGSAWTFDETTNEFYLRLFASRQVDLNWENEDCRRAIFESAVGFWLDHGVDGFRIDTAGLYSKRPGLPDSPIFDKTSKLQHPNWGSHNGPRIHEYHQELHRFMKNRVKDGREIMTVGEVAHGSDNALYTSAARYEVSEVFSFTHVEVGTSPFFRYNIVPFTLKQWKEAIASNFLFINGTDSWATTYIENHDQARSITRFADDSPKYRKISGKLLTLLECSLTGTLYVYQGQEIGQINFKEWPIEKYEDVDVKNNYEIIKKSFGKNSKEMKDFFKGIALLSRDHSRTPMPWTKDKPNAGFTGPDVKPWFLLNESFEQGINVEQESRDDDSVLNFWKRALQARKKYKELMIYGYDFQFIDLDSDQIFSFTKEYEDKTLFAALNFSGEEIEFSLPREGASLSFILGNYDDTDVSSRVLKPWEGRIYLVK
T2 sequence (P53341 whole entry): as above

Structure (SMILES)	IC50 [2]	melting point	other results
Oc1ccc2ccccc2n1 [A, 2-hydroxyquinoline]	–	–	IC50 (α-glucosidase [1]; Fig. 1): 64.4 ± 1.7 µg/mL
C[C@H]1O[C@H](O[C@H]2[C@H](O)[C@@H](O)[C@@H](O[C@H]3[C@H](O)[C@@H](O)C(O)O[C@@H]3CO)O[C@@H]2CO)[C@H](O)[C@@H](O)[C@@H]1N[C@H]1C=C(CO)[C@@H](O)[C@H](O)[C@H]1O (some centres unmarked) [Acarbose]	–	–	α-glucosidase inhibition (α-glucosidase [1]; at 128 μg/mL): 75.55%
O=C(N/N=C/c1ccc(O)c(O)c1)c1ccc(-c2nnc(-c3ccc4ncccc4c3)o2)cc1 [C]	–	–	IC50 (α-glucosidase [1]; quinoline–oxadiazole Schiff bases, read-out: IC50): 2.6 ± 0.01 µM
O=C(N/N=C/c1ccccc1)c1c(O)nc2ccccc2c1O [Compound 6a, (E)-N'-benzylidene-4-hydroxy-2-oxo-1,2-dihydroquinoline-3-carbohydrazide]	382.6 ± 0.9 µM	–	–
O=C(N/N=C/c1ccccc1F)c1c(O)c2ccccc2[nH]c1=O [Compound 6b, (E)-N'-(2-fluorobenzylidene)-4-hydroxy-2-oxo-1,2-dihydroquinoline-3-carbohydrazide]	247 ± 1.1 µM	190 to 192 °C	–
O=C(N/N=C/c1ccc(F)cc1)c1c(O)nc2ccccc2c1O [Compound 6c, (E)-N'-(4-fluorobenzylidene)-4-hydroxy-2-oxo-1,2-dihydroquinoline-3-carbohydrazide]	195.3 ± 1.2 µM	–	–
O=C(N/N=C/c1ccc(Cl)cc1)c1c(O)c2ccccc2[nH]c1=O [Compound 6d, (E)-N'-(4-chlorobenzylidene)-4-hydroxy-2-oxo-1,2-dihydroquinoline-3-carbohydrazide]	131.6 ± 0.3 µM	194 to 196 °C	–
O=C(N/N=C/c1cccc(Br)c1)c1c(O)c2ccccc2[nH]c1=O [Compound 6e, (E)-N'-(3-bromobenzylidene)-4-hydroxy-2-oxo-1,2-dihydroquinoline-3-carbohydrazide]	436.7 ± 1 µM	187 to 189 °C	–
O=C(N/N=C/c1ccc(Br)cc1)c1c(O)c2ccccc2[nH]c1=O [Compound 6f, (E)-N'-(4-bromobenzylidene)-4-hydroxy-2-oxo-1,2-dihydroquinoline-3-carbohydrazide]	520.2 ± 1.5 µM	179 to 181 °C	–
O=C(N/N=C/c1ccc([N+](=O)[O-])cc1)c1c(O)c2ccccc2[nH]c1=O [Compound 6g, (E)-4-hydroxy-N'-(4-nitrobenzylidene)-2-oxo-1,2-dihydroquinoline-3-carbohydrazide]	120.5 ± 0.8 µM	208 to 210 °C	–
Cc1ccc(/C=N/NC(=O)c2c(O)c3ccccc3[nH]c2=O)cc1 [Compound 6h, (E)-4-hydroxy-N'-(4-methylbenzylidene)-2-oxo-1,2-dihydroquinoline-3-carbohydrazide]	136.7 ± 0.5 µM	180 to 182 °C	–
COc1ccc(/C=N/NC(=O)c2c(O)c3ccccc3[nH]c2=O)cc1 [Compound 6i, (E)-4-hydroxy-N'-(4-methoxybenzylidene)-2-oxo-1,2-dihydroquinoline-3-carbohydrazide]	259 ± 1 µM	189 to 191 °C	–
O=C(N/N=C/c1ccccc1O)c1c(O)c2ccccc2[nH]c1=O [Compound 6j, (E)-4-hydroxy-N'-(2-hydroxybenzylidene)-2-oxo-1,2-dihydroquinoline-3-carbohydrazide]	154.8 ± 0.1 µM	177 to 179 °C	–
O=C(N/N=C/c1cccc(O)c1)c1c(O)c2ccccc2[nH]c1=O [Compound 6k, (E)-4-hydroxy-N'-(3-hydroxybenzylidene)-2-oxo-1,2-dihydroquinoline-3-carbohydrazide]	196.3 ± 0.7 µM	186 to 188 °C	–
O=C(N/N=C/c1cc(Br)ccc1O)c1c(O)c2ccccc2[nH]c1=O [Compound 6l, (E)-N'-(5-bromo-2-hydroxybenzylidene)-4-hydroxy-2-oxo-1,2-dihydroquinoline-3-carbohydrazide]	94.2 ± 1 µM	171 to 173 °C	mode of inhibition (α-glucosidase [3]): competitive inhibition; Ki (α-glucosidase [3]): 92 µM
O=C(N/N=C/c1cc([N+](=O)[O-])ccc1O)c1c(O)c2ccccc2[nH]c1=O [Compound 6m, (E)-4-hydroxy-N'-(2-hydroxy-5-nitrobenzylidene)-2-oxo-1,2-dihydroquinoline-3-carbohydrazide]	93.5 ± 0.6 µM	198 to 200 °C	mode of inhibition (α-glucosidase [3]): competitive inhibition; Ki (α-glucosidase [3]): 93 µM
O=C(N/N=C/c1ccc(O)cc1O)c1c(O)c2ccccc2[nH]c1=O [Compound 6n, (E)-N'-(2,4-dihydroxybenzylidene)-4-hydroxy-2-oxo-1,2-dihydroquinoline-3-carbohydrazide]	187.8 ± 0.3 µM	185 to 187 °C	–
COc1cc(/C=N/NC(=O)c2c(O)c3ccccc3[nH]c2=O)ccc1O [Compound 6o, (E)-4-hydroxy-N'-(4-hydroxy-3-methoxybenzylidene)-2-oxo-1,2-dihydroquinoline-3-carbohydrazide]	575.6 ± 0.4 µM	193 to 195 °C	–
O=C(N/N=C/c1ccc(O)c(O)c1)c1ccc2ncccc2c1 [D]	–	–	IC50 (α-glucosidase [1]; quinoline derivatives, read-out: IC50): 6.2 ± 0.3 µM
O=C(Cc1ccc(Cl)cc1Cl)N/N=C1/C(=O)Nc2cc(Br)ccc21 [E]	–	–	IC50 (α-glucosidase [1]; isatin-hydrazone structure, recent research (reference number not given), read-out: IC50): 2.2 ± 0.25 µM
O=C(N/N=C/c1c(O)cc(O)cc1O)c1ccc(-c2cc(=O)c3ccccc3o2)cc1 [F]	–	–	IC50 (α-glucosidase [1]; flavone-hydrazone, read-out: IC50): 15.4 ± 0.22 µM
O=C(N/N=C/c1ccc(Cl)cc1)c1ccc(-c2nc3ccccc3s2)cc1 [G]	–	–	IC50 (α-glucosidase [1]; benzothiazole-bearing benzohydrazide, read-out: IC50): 5.31 ± 0.03 µM
O=C(N/N=C/c1cccc(F)c1)c1ccc2nc(-c3ccccc3)c(-c3ccccc3)nc2c1 [H]	–	–	mode of inhibition (α-glucosidase [1]): competitive mode of inhibition; IC50 (α-glucosidase [1]; read-out: IC50): 111 µM
